According to patent US6465460B1, “Compositions and methods for prevention and treatment of protozoal disease” (New Ace Research Company, priority 1998, dated 2002):

Columns and labels:
[1] = Repeated daily IV administration of diclazuril in DMSO to the horse DEEP POWDER: plasma levels; format: in vivo; details: horse 1160 lbs, 0.5 mg/lb (580 mg) in DMSO IV once a day for eight days, sampled 24 hours after each dose, read-out: final steady state plasma concentration of diclazuril
Experimental: The horse, DEEP POWDER, 1160 lbs., in Table 2 above was administered diclazuril at a dose of 0.5 mg/lb. (580 mg) in DMSO IV once a day for eight days. Plasma levels of diclazuril at 24 hours after each dose administration and just before the next day's dosing are represented by the solid circles [drawing 6]
in the above Table 2. Note bow the dose of […] yields a stepwise increasing plasma concentrations of diclazuril, yielding a final steady state plasma concentration of diclazuril of about 10,000 ng/ml.

[2] = listed by JANSEEN Research Foundation; cited from earlier work
in vivo = experiment: in vivo; parameters: species or system horse
Experimental: OWENS, (about 1,000 lbs.) received 750 mg of diclazuril powder dissolved in 30 ml of DMSO, intravenously, twice on day one, at zero and zero plus one hours for a total dose of 1,500 mg. Blood samples were drawn at the indicated time points immediately before the next dosing and the solid circles [drawing 4] in FIG. 1 represent plasma concentrations of diclazuril after these administrations. Plasma concentrations of dicalzuril in ng/ml are represented on the vertical axis against time in days on the horizontal axis. […] Concentrations at 72 hr and 96 hr were not included in calculation following IV administration. Area Under the Curve (AUC from 0 to ∞): Intercept-Slope Method [formula] […] Cl=55.26 ml/min. […] ClH=QH. EH EH is lower than 0.3 so diclazuril is found to have low hepatic extraction ratio.

pKa of diclazuril = format: physicochemical; details: aqueous solution of the sodium salt of diclazuril; inferred from pH stability study of the sodium salt; read-out: pKa inferred from precipitation pH
Experimental: (§1) The manufacturer of diclazuril, JANSEEN Research Foundation, listed the pKa of diclazuril to be 5.92 in its physico-chemical characteristics of diclazuril. It can be expected that at pH's above the pKa of the compound (i.e. pH>6), aqueous solution of diclazuril would stay in solution. Preliminary studies were conducted to determine the pH at which sodium salt would precipitate.
(§2) Sodium salt of diclazuril was dissolved in water. […] The pH of the aqueous solution was 12.4. To this solution, 1N HCl was added dropwise while stirring and the pH at which the solution began to turn cloudy was recorded.

[3] = format: physicochemical
Experimental: Diclazuril has a very low solubility in water (<1×10^−7 at pH 6.5) and can in fact be considered as practically-insoluble in water. A presently preferred plasma drug concentration of about 8 μg/ml for about 25-30 days is needed for the effective treatment of equine protozoan myeloencephalitis (EPM). The oral bioavailability of diclazuril is very low. Thus, a parenteral formulation is desired.
as §2

Babesia equi = details: horses treated for piroplasmosis; cited from earlier work
[4] = pH stability of sodium salt of diclazuril (dropwise 1N HCl until cloudy); format: physicochemical
Experimental: as §1, §2
This will not cause a problem as there are many drugs on the market that are formulated at higher pHs for exactly the same reason.

In the case of `N#CC(c1ccc(Cl)cc1)c1c(Cl)cc(-n2ncc(=O)[nH]c2=O)cc1Cl` (stereo not drawn) [diclazuril], the concentration at 24 h [1] is given as about 10000 ng/mL, the “pKa listed by manufacturer” value [2] is given as 5.92 and the “level of diclazuril in urine samples” value (in vivo) is given as “Not detectable”. The “EH (hepatic extraction ratio)” value (in vivo; horse) was “lower than 0.3”, the AUC (in vivo; horse, iv) was 452 µg·h/mL and the clearance (in vivo; horse, iv) was 55.3 mL/min. The half-life (in vivo; horse, iv) was about 48 h, the pKa (pKa of diclazuril) was about 10.5 and the “solubility in water (in words)” value [3] was “completely insoluble in water”.
For `O=C(Nc1cccc(C2=NCCN2)c1)Nc1cccc(C2=NCCN2)c1` [imidocarb dipropionate], the “adverse side effects of treatment” value (Babesia equi) is listed as “salivation, restlessness, colic and gastrointestinal tract hypermotility”.
For `N#CC(c1ccc(Cl)cc1)c1c(Cl)cc(-n2ncc(=O)[n-]c2=O)cc1Cl.[Na+]` (stereo not drawn) [sodium salt of diclazuril], the “pH at which the solution began to turn cloudy” value ([4]; 1N HCl added dropwise while stirring, preliminary study) was 10.5 and the “pH of the aqueous solution” value ([4]; sodium salt dissolved in water) was 12.4.
